In patent US10750743B2, “Pyridazinone herbicides” (E.I. DU PONT DE NEMOURS AND COMPANY, priority 2015, dated 2020):

Columns and labels:
Type in all cases: in vivo
[1] = system: pigweed (Amaranthus retroflexus); assay: Test A preemergence, directed soil spray, visual injury rating; conditions: 0 is no effect, 100 is complete control
Procedure, shortened: (§1)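 Seeds sown in a loam soil–sand blend received a directed preemergence soil spray of test chemical in a non-phytotoxic solvent mixture with surfactant. Postemergence plants were sprayed at 2 to 10 cm, one- to two-leaf stage. After approximately 10 d in greenhouse, injury was visually rated 0 (no effect) to 100 (complete control) against untreated controls.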

[2] = system: foxtail, giant (giant foxtail, Setaria faberii); assay: as above; conditions: 0 is no effect, 100 is complete control
Procedure, shortened: as §1

[3] = system: ryegrass, It. (Italian ryegrass, Lolium multiflorum); assay: as above; conditions: 0 is no effect, 100 is complete control
Procedure, shortened: as §1

[4] = system: barnyardgrass (Echinochloa crus-galli); assay: as above; conditions: 0 is no effect, 100 is complete control
Procedure, shortened: as §1

[5] = system: ragweed (common ragweed, Ambrosia elatior); assay: as above; conditions: 0 is no effect, 100 is complete control
Procedure, shortened: as §1

kochia (Kochia scoparia) [6] = assay: as above; conditions: 0 is no effect, 100 is complete control
Procedure, shortened: as §1

corn (Zea mays) = assay: Test A postemergence application, visual injury rating; conditions: for Corn plant response rating: 0 to 100 scale, 0 no effect, 100 complete control; for Plant response rating (0 to 100 scale), Corn: 0 is no effect, 100 is complete control
Procedure, shortened: as §1

[7] = system: pigweed (Amaranthus retroflexus); assay: as above; conditions: for Pigweed plant response rating: 0 to 100 scale, 0 no effect, 100 complete control; for Plant response rating (0 to 100 scale), Pigweed: 0 is no effect, 100 is complete control
Procedure, shortened: as §1

[8] = system: foxtail, giant (giant foxtail, Setaria faberii); assay: as above; conditions: for Foxtail, Giant plant response rating: 0 to 100 scale, 0 no effect, 100 complete control; for Plant response rating (0 to 100 scale), Foxtail, Giant: 0 is no effect, 100 is complete control
Procedure, shortened: as §1

[9] = system: ryegrass, It. (Italian ryegrass, Lolium multiflorum); assay: as above; conditions: for Ryegrass, It. plant response rating: 0 to 100 scale, 0 no effect, 100 complete control; for Plant response rating (0 to 100 scale), Ryegrass, It.: 0 is no effect, 100 is complete control
Procedure, shortened: as §1

[10] = system: barnyardgrass (Echinochloa crus-galli); assay: as above; conditions: 0 to 100 scale, 0 no effect, 100 complete control
Procedure, shortened: as §1

[11] = system: ragweed (common ragweed, Ambrosia elatior); assay: as above; conditions: for Ragweed plant response rating: 0 to 100 scale, 0 no effect, 100 complete control; for Plant response rating (0 to 100 scale), Ragweed: 0 is no effect, 100 is complete control
Procedure, shortened: as §1

kochia (Kochia scoparia) [12] = assay: as above; conditions: for Kochia plant response rating: 0 to 100 scale, 0 no effect, 100 complete control; for Plant response rating (0 to 100 scale), Kochia: 0 is no effect, 100 is complete control
Procedure, shortened: as §1

[13] = system: blackgrass (Alopecurus myosuroides); assay: as above; conditions: 0 to 100 scale, 0 no effect, 100 complete control
Procedure, shortened: as §1

[14] = system: wheat (Triticum aestivum); assay: as above; conditions: for Wheat plant response rating: 0 to 100 scale, 0 no effect, 100 complete control; for Plant response rating (0 to 100 scale), Wheat: 0 is no effect, 100 is complete control
Procedure, shortened: as §1

[15] = system: galium (catchweed bedstraw, Galium aparine); assay: as above; conditions: for Galium plant response rating: 0 to 100 scale, 0 no effect, 100 complete control; for Plant response rating (0 to 100 scale), Galium: 0 is no effect, 100 is complete control
Procedure, shortened: as §1

[16] = system: sedge, umbrella (small-flower umbrella sedge, Cyperus difformis); assay: Test B flooded paddy test, visual rating; conditions: Flood, 250 g ai/ha, applied to paddy water, rated after 13 to 15 d
Procedure, shortened: (§2)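 Plants at the 2-leaf stage were flooded to 3 cm above soil, and test compounds were applied directly into the paddy water, which was held at that depth throughout. After 13 to 15 d in a greenhouse, injury was rated visually against untreated controls on a 0–100 scale (0 no effect, 100 complete control).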

[17] = system: barnyardgrass (Echinochloa crus-galli); assay: Test B flooded paddy test, visual rating; conditions: Flood, 250 g ai/ha, applied to paddy water, rated after 13 to 15 d
Procedure, shortened: as §2

[18] = system: ducksalad (Heteranthera limosa); assay: Test B flooded paddy test, visual rating; conditions: Flood, 250 g ai/ha, applied to paddy water, rated after 13 to 15 d
Procedure, shortened: as §2

rice (Oryza sativa) = assay: Test B flooded paddy test, visual rating; conditions: Flood, 250 g ai/ha, applied to paddy water, rated after 13 to 15 d
Procedure, shortened: as §2

| Structure (SMILES) | Plant response rating (0 to 100 scale), Pigweed ([1]; 31 g ai/ha) | Plant response rating (0 to 100 scale), Pigweed ([1]; 125 g ai/ha) | Plant response rating (0 to 100 scale), Foxtail, Giant ([2]; 31 g ai/ha) | Plant response rating (0 to 100 scale), Foxtail, Giant ([2]; 125 g ai/ha) | Plant response rating (0 to 100 scale), Ryegrass, It. ([3]; 31 g ai/ha) | Plant response rating (0 to 100 scale), Ryegrass, It. ([3]; 125 g ai/ha) | Plant response rating (0 to 100 scale), Barnyardgrass ([4]; 31 g ai/ha) | Plant response rating (0 to 100 scale), Barnyardgrass ([4]; 125 g ai/ha) | Plant response rating (0 to 100 scale), Ragweed ([5]; 31 g ai/ha) | Plant response rating (0 to 100 scale), Ragweed ([5]; 125 g ai/ha) | Plant response rating (0 to 100 scale), Kochia (kochia (Kochia scoparia) [6]; 31 g ai/ha) | Plant response rating (0 to 100 scale), Kochia (kochia (Kochia scoparia) [6]; 125 g ai/ha) | Corn plant response rating (corn (Zea mays); 125 g ai/ha) | Pigweed plant response rating ([7]; 125 g ai/ha) | Foxtail, Giant plant response rating ([8]; 125 g ai/ha) | Ryegrass, It. plant response rating ([9]; 125 g ai/ha) | Barnyardgrass plant response rating ([10]; 31 g ai/ha) | Barnyardgrass plant response rating ([10]; 125 g ai/ha) | Ragweed plant response rating ([11]; 125 g ai/ha) | Kochia plant response rating (kochia (Kochia scoparia) [12]; 125 g ai/ha) | further results |
| --- | --- | --- | --- | --- | --- | --- | --- | --- | --- | --- | --- | --- | --- | --- | --- | --- | --- | --- | --- | --- | --- |
| Cc1nn(C)c(=O)c(-c2ccc(Cl)c3sccc23)c1OC(=O)c1ccccc1 [Compound 57] | 0 | 0 | 0 | 0 | 0 | 10 | 0 | 0 | 0 | 0 | 50 | 0 | 0 | 0 | 0 | 0 | 0 | 0 | 0 | 0 | Corn plant response rating (corn (Zea mays); 31 g ai/ha): 0; Pigweed plant response rating ([7]; 31 g ai/ha): 0; Foxtail, Giant plant response rating ([8]; 31 g ai/ha): 0; Ryegrass, It. plant response rating ([9]; 31 g ai/ha): 0; Ragweed plant response rating ([11]; 31 g ai/ha): 0; Kochia plant response rating (kochia (Kochia scoparia) [12]; 31 g ai/ha): 0; Blackgrass plant response rating ([13]; 31 g ai/ha): 0; Blackgrass plant response rating ([13]; 125 g ai/ha): 0; Wheat plant response rating ([14]; 31 g ai/ha): 0; Wheat plant response rating ([14]; 125 g ai/ha): 0; Galium plant response rating ([15]; 31 g ai/ha): 0; Galium plant response rating ([15]; 125 g ai/ha): 0; Sedge, Umbrella plant response rating (0 to 100 scale, 0 is no effect, 100 is complete control) [16]: 0; Barnyardgrass plant response rating (0 to 100 scale, 0 is no effect, 100 is complete control) [17]: 0; Ducksalad plant response rating (0 to 100 scale, 0 is no effect, 100 is complete control) [18]: 0; Rice plant response rating (0 to 100 scale, 0 is no effect, 100 is complete control) (rice (Oryza sativa)): 0 |
| COC(=O)Oc1c(C)nn(C)c(=O)c1-c1ccc(Cl)c2sccc12 [Compound 59] | 0 | 0 | 0 | 0 | 10 | 10 | 0 | 0 | 50 | 30 | 10 | 20 | 20 | 30 | 0 | 10 | 0 | 0 | 0 | 60 | Plant response rating (0 to 100 scale), Corn (corn (Zea mays); 31 g ai/ha): 0; Plant response rating (0 to 100 scale), Pigweed ([7]; 31 g ai/ha): 0; Plant response rating (0 to 100 scale), Foxtail, Giant ([8]; 31 g ai/ha): 0; Plant response rating (0 to 100 scale), Ryegrass, It. ([9]; 31 g ai/ha): 0; Plant response rating (0 to 100 scale), Ragweed ([11]; 31 g ai/ha): 0; Plant response rating (0 to 100 scale), Kochia (kochia (Kochia scoparia) [12]; 31 g ai/ha): 0; Blackgrass plant response rating ([13]; 31 g ai/ha): 0; Blackgrass plant response rating ([13]; 125 g ai/ha): 0; Plant response rating (0 to 100 scale), Wheat ([14]; 31 g ai/ha): 0; Wheat plant response rating ([14]; 125 g ai/ha): 0; Plant response rating (0 to 100 scale), Galium ([15]; 31 g ai/ha): 20; Galium plant response rating ([15]; 125 g ai/ha): 80; Sedge, Umbrella plant response rating (0 to 100 scale, 0 is no effect, 100 is complete control) [16]: 0; Barnyardgrass plant response rating (0 to 100 scale, 0 is no effect, 100 is complete control) [17]: 0; Ducksalad plant response rating (0 to 100 scale, 0 is no effect, 100 is complete control) [18]: 0; Rice plant response rating (0 to 100 scale, 0 is no effect, 100 is complete control) (rice (Oryza sativa)): 20 |
| CC(=O)Oc1c(C)nn(C)c(=O)c1-c1ccc(Cl)c2sccc12 [Compound 60] | 0 | 100 | 0 | 0 | 0 | 10 | 0 | 0 | 0 | 0 | 0 | 0 | 0 | 30 | 0 | 10 | 0 | 0 | 0 | 70 | Plant response rating (0 to 100 scale), Corn (corn (Zea mays); 31 g ai/ha): 0; Plant response rating (0 to 100 scale), Pigweed ([7]; 31 g ai/ha): 0; Plant response rating (0 to 100 scale), Foxtail, Giant ([8]; 31 g ai/ha): 0; Plant response rating (0 to 100 scale), Ryegrass, It. ([9]; 31 g ai/ha): 0; Plant response rating (0 to 100 scale), Ragweed ([11]; 31 g ai/ha): 0; Plant response rating (0 to 100 scale), Kochia (kochia (Kochia scoparia) [12]; 31 g ai/ha): 20; Blackgrass plant response rating ([13]; 31 g ai/ha): 0; Blackgrass plant response rating ([13]; 125 g ai/ha): 0; Plant response rating (0 to 100 scale), Wheat ([14]; 31 g ai/ha): 0; Wheat plant response rating ([14]; 125 g ai/ha): 0; Plant response rating (0 to 100 scale), Galium ([15]; 31 g ai/ha): 20; Galium plant response rating ([15]; 125 g ai/ha): 100; Sedge, Umbrella plant response rating (0 to 100 scale, 0 is no effect, 100 is complete control) [16]: 0; Barnyardgrass plant response rating (0 to 100 scale, 0 is no effect, 100 is complete control) [17]: 0; Ducksalad plant response rating (0 to 100 scale, 0 is no effect, 100 is complete control) [18]: 0; Rice plant response rating (0 to 100 scale, 0 is no effect, 100 is complete control) (rice (Oryza sativa)): 0 |
